Patent US20240228446A1, “PREPARATION METHOD FOR BICYCLIC COMPOUND AND APPLICATION AS ANTIFUNGAL AGENT” (priority 2021, published 2024)
≈ marks a conversion by molar mass, not a printed value. Where two headings read alike, the source gives them in different places.

How the values were obtained:
[1] = Drug-drug interaction / pharmacokinetic study of single drug and combination with nifedipine by gavage; settings: CD1 mice, ketoconazole 30 mg/kg alone vs ketoconazole 30 mg/kg + nifedipine 15 mg/kg
Description: The dosing solution was prepared on the day of administration. An appropriate amount of nifedipine was precisely weighed into a centrifuge tube, then an appropriate volume of 0.5% MC was added thereto and vortexed to dissolve, resulting in a dosing solution with a concentration of 1.5 mg/mL.
Appropriate amounts of ketoconazole and isavuconazonium sulfate (CAS #946075-13-4) were precisely weighed and placed into separate centrifuge tubes. An appropriate volume of 0.5% MC was added to each tube and vortexed to dissolve, resulting in dosing solutions with concentrations of 3 mg/mL and 12 mg/mL, respectively.
An appropriate amount of the compound of the example of the present disclosure was precisely weighed into a centrifuge tube, then an appropriate volume of 16% SBECD was added thereto and vortexed to dissolve, resulting in a dosing solution with a concentration of 10 mg/mL.
CD1 mice, 6 to 8 weeks old, male, were divided into seven groups. […]

[2] = test system: Candida albicans ATCC MYA-2876; assay: Minimal inhibitory concentration (MIC) test on fungal growth (CLSI M27, yeasts); assay type: cell-based; settings: for MIC: Candida albicans, read-out: MIC Candida albicans ATCC MYA-2876
In short: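 Broth microdilution followed CLSI M27 in RPMI1640 buffered with 0.165 M MOPS, pH 7.0, with a final inoculum of 500–2500 CFU/mL. Eleven 2-fold compound concentrations were tested, and plates were incubated 24 h at 35 °C. MIC was the lowest concentration giving 50% growth inhibition, read visually with optional OD530 assistance.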

[3] = test system: Aspergillus fumigatus ATCC MYA-4609; assay: Minimal inhibitory concentration (MIC) test on fungal growth (CLSI M38, Aspergillus); assay type: cell-based; settings: for MIC: Aspergillus fumigatus, read-out: MIC Aspergillus fumigatus ATCC MYA-4609
Description: • RPMI1640 medium: Brand: Gibco, article number: 31800-014 • Sabouraud dextrose agar (SDA): Brand: Hope Bio, article number: HB0253-81 • Voriconazole: Brand: Adamas, article number: 22105A • Amphotericin B: Brand: AbCam, article number: ab141199
MIC test was conducted in accordance with the guidelines and requirements of CLSI M27 (for yeasts) and M38 (for Aspergillus).
Strain preparation: The strains were inoculated 1 day in advance by streaking on SDA plates with glycerol strains stored at −80° C. The strains were cultured at 35° C. and 40 to 60% humidity for 18 to 24 hours. Streak inoculation of Aspergillus fumigatus and Cryptococcus neoformans was required to be done 3 days and 2 days in advance, respectively.
Preparation of culture medium and compounds: The liquid culture medium RPMI was prepared with pure water, and 0.165 mol/L MOPS was added to adjust the pH to 7.0. The mixture was filtered with a 0.22 μm-membrane filter, sterilized, and stored at 4° C. (no more than 3 months). 0.85% physiological saline was sterilized at 121° C. for 30 min and then stored at room temperature (no more than 1 week). The compounds were dissolved in DMSO to 12.8 mg/mL and stored at −20° C.
For Aspergillus, 5 mL of physiological saline was added to cover the mycelium, and the spores were gently scraped off with a spreader. The spore suspension was then transferred to a sterile test tube. An appropriate amount of spore suspension was taken and counted under a microscope using a hemocytometer. Spore concentration was adjusted to approximately 0.4 to 5×10^4 spores/mL using RPMI1640 medium.
The compound was diluted to the highest 800 μg/mL (or 400 μg/mL) with DMSO, and a 10-step 2-fold gradient dilution was performed, resulting in 11 concentrations. 2 μL of the gradient-diluted compound was transferred to the corresponding wells of a 96-well plate, and then 198 μL of the inoculum was transferred to the test plate. The plate was incubated at 35° C. for 24 hours (Aspergillus fumigatus and Cryptococcus neoformans were incubated for 48 and 72 hours, respectively).
After the incubation, the growth of the fungi was visually observed. The lowest concentration of the compound that inhibited the growth of yeast by 50% (inhibited Aspergillus by 100%) was defined as the minimum inhibitory concentration (MIC, μg/mL). A magnifying glass or reading at OD530 nm could be used to assist in determining the MIC. Photos were taken of the test plates for record keeping.

[4] = lowest concentration inhibiting growth of yeast by 50%, 35° C., 24 hours, RPMI1640
[5] = lowest concentration inhibiting Aspergillus by 100%, 35° C., 48 hours, RPMI1640

| SMILES | MIC [2, 4] [mg/L] | MIC [3, 5] [mg/L] | further results |
| --- | --- | --- | --- |
| CC(=O)N1CCN(c2ccc(OCC3COC(Cn4ccnc4)(c4ccc(Cl)cc4Cl)O3)cc2)CC1 (stereo not drawn) [ketoconazole] |  |  | exposure to ketoconazole, monotherapy group vs combination therapy group [1]: not significantly different |
| O[C@](Cn1cncn1)(CC12CC(c3ccc(OCC(F)(F)F)cc3)(C1)C2)c1ccc(F)cc1F [Compound 49A] | ≤ 0.0039 | 0.5 (≈ 1.04 µM) |  |
| OC(Cn1cnnn1)(c1ccc(F)cc1F)C(F)(F)C12CC(c3ccc(OCC(F)(F)F)cc3)(C1)C2 (stereo not drawn) [Compound 3] | 0.03 (≈ 0.0581 µM) | 2 (≈ 3.87 µM) |  |
| N#Cc1ccc(C23CC(C(F)(F)[C@](O)(Cn4cncn4)c4cc(F)ccc4F)(C2)C3)cc1 [Compound 29A] | ≤ 0.0039 | 1 (≈ 2.26 µM) |  |
| O[C@H](COc1ccc(C23CC(C[C@](O)(Cn4cncn4)c4ccc(F)cc4F)(C2)C3)cc1)C(F)(F)F [Compound 90A] | ≤ 0.0039 | 0.5 (≈ 0.981 µM) |  |
| O[C@@](Cn1cnnn1)(c1ccc(F)cc1F)C(F)(F)C12CC(c3ccc(OCC4(F)COC4)cc3)(C1)C2 [Compound 121A] |  |  | MIC Candida albicans ATCC MYA-2876 [2, 4]: ≤0.0039 mg/L; MIC Aspergillus fumigatus ATCC MYA-4609 [3, 5]: 4 mg/L (≈ 7.66 µM) |
| N#Cc1ccc(C23CC(C(F)(F)[C@](O)(Cn4cncn4)c4ccc(F)cc4F)(C2)C3)cc1 [Compound 27A] | ≤ 0.0039 | 0.5 (≈ 1.13 µM) |  |
| O[C@@](Cn1cnnn1)(c1ccc(F)cc1F)C(F)(F)C12CC(c3ccc(O[C@@H]4CCOC4)cc3)(C1)C2 [Compound 40A] |  |  | MIC Candida albicans ATCC MYA-2876 [2, 4]: ≤0.0039 mg/L; MIC Aspergillus fumigatus ATCC MYA-4609 [3, 5]: 4 mg/L (≈ 7.93 µM) |
| N#Cc1ccc(C23CC(C(F)(F)C(O)(Cn4cncn4)c4cc(F)ccc4F)(C2)C3)cc1 (stereo not drawn) [Compound 29] | ≤ 0.0039 | 2 (≈ 4.52 µM) |  |
| OC(Cn1cnnn1)(c1ccc(F)cc1F)C(F)(F)C12CC(c3ccc(O[C@@H]4CCOC4)cc3)(C1)C2 (stereo partly drawn) [Compound 40] | ≤ 0.0039 | 16 (≈ 31.7 µM) |  |
| O[C@@](Cn1cnnn1)(c1ccc(F)cc1F)C(F)(F)C12CC(c3ccc(O[C@H]4CCOC4)cc3)(C1)C2 [Compound 41A] |  |  | MIC Candida albicans ATCC MYA-2876 [2, 4]: ≤0.0039 mg/L; MIC Aspergillus fumigatus ATCC MYA-4609 [3, 5]: 8 mg/L (≈ 15.9 µM) |
| O[C@@H](COc1ccc(C23CC(C(F)(F)[C@](O)(Cn4cnnn4)c4ccc(F)cc4F)(C2)C3)cc1)C(F)(F)F [Compound 51B] |  |  | MIC Candida albicans ATCC MYA-2876 [2, 4]: 0.0078 mg/L (≈ 0.0143 µM); MIC Aspergillus fumigatus ATCC MYA-4609 [3, 5]: 4 mg/L (≈ 7.32 µM) |
| OC(Cn1cnnn1)(c1ccc(F)cc1F)C(F)(F)C12CC(c3ccc(OCC(F)F)cc3)(C1)C2 (stereo not drawn) [Compound 22] | 0.0078 (≈ 0.0156 µM) | 4 (≈ 8.03 µM) |  |
| OCC(F)(F)COc1ccc(C23CC(C(F)(F)[C@](O)(Cn4cnnn4)c4ccc(F)cc4F)(C2)C3)cc1 [Compound 50A] | 0.0078 (≈ 0.0148 µM) | 2 (≈ 3.78 µM) |  |
| OC(Cn1cnnn1)(c1ccc(F)cc1F)C(F)(F)C12CC(c3ccc(O[C@H]4CCOC4)cc3)(C1)C2 (stereo partly drawn) [Compound 41] | 0.0078 (≈ 0.0155 µM) | 8 (≈ 15.9 µM) |  |
| N#CCOc1ccc(C23CC(C(F)(F)C(O)(Cn4cnnn4)c4ccc(F)cc4F)(C2)C3)cc1 (stereo not drawn) [Compound 69] |  |  | MIC ([2]; 24 h): 0.016 mg/L (≈ 0.0338 µM); MIC ([3]; 48 h): 4 mg/L (≈ 8.45 µM) |
| CC(C)(O)COc1ccc(C23CC(C(F)(F)[C@](O)(Cn4cncn4)c4ccc(F)cc4F)(C2)C3)cc1 [Compound 37A] | ≤ 0.0039 | 1 (≈ 1.98 µM) |  |
| Oc1ccc(C23CC(C(F)(F)C(O)(Cn4cncn4)c4ccc(F)cc4F)(C2)C3)cc1 (stereo not drawn) [Compound 21] | ≤ 0.0039 | 2 (≈ 4.61 µM) |  |

The next lines start with results.

| MIC [2, 4] [mg/L] | MIC [3, 5] [mg/L] | SMILES | further results |
| --- | --- | --- | --- |
| ≤ 0.0039 | 2 (≈ 4.01 µM) | O[C@@](Cn1cnnn1)(c1ccc(F)cc1F)C(F)(F)C12CC(c3ccc(COC(F)F)cc3)(C1)C2 (stereo in doubt) [Compound 159A] |  |
| 0.016 (≈ 0.0285 µM) | 4 (≈ 7.14 µM) | COC(COc1ccc(C23CC(C(F)(F)C(O)(Cn4cnnn4)c4ccc(F)cc4F)(C2)C3)cc1)C(F)(F)F (stereo not drawn) [Compound 136] |  |
| ≤ 0.0039 | 4 (≈ 7.71 µM) | O[C@@H](COc1ccc(C23CC(C(F)(F)[C@](O)(Cn4cnnn4)c4ccc(F)cc4F)(C2)C3)cc1)C1CC1 (relative stereo) [Compound 144B] |  |
| ≤ 0.0039 | 1 (≈ 1.91 µM) | CC(C12CC(c3ccc(OC[C@H](O)C(F)(F)F)cc3)(C1)C2)C(O)(Cn1cncn1)c1ccc(F)cc1F (stereo in doubt) [Compound 125] |  |
| ≤ 0.0039 | 4 (≈ 7.14 µM) | O[C@@H](COc1ccc(C23CC(C(F)(F)[C@](O)(Cn4cnnn4)c4ccc(F)cc4F)(C2)C3)cc1)CC(F)(F)F (relative stereo) [Compound 142B] |  |
| 0.0078 (≈ 0.0148 µM) | 8 (≈ 15.2 µM) | CS(=O)(=O)COc1ccc(C23CC(C(F)(F)C(O)(Cn4cnnn4)c4ccc(F)cc4F)(C2)C3)cc1 (stereo not drawn) [Compound 131] |  |
| ≤ 0.0039 | 0.5 (≈ 0.955 µM) | C[C@H](C12CC(c3ccc(OC[C@H](O)C(F)(F)F)cc3)(C1)C2)[C@](O)(Cn1cncn1)c1ccc(F)cc1F (relative stereo) [Compound 125A] |  |
| ≤ 0.0039 | 2 (≈ 3.85 µM) | OC1(COc2ccc(C34CC(C(F)(F)C(O)(Cn5cncn5)c5ccc(F)cc5F)(C3)C4)cc2)COC1 (stereo not drawn) [Compound 151] |  |
